Patent US20210261538A1, “PROTEIN ARGININE METHYLTRANSFERASE 5 (PRMT5) DEGRADATION / DISRUPTION COMPOUNDS AND METHODS OF USE” (ICAHN SCHOOL OF MEDICINE AT MOUNT SINAI, priority 2018, published 2021)
“Also recorded” adds a separate entry of the source.

Legend:
PRMT5 [1] = molecular target: T1, PRMT5 (Homo sapiens, UniProt O14744); assay: Western blot of PRMT5 protein levels in HCT116 cells; assay type: cell-based; set-up: endogenous in cells; conditions: 5 μM, 6 days
Method: (§1) MCF-7 cells, HEK293T cells and HeLa cells were cultured in Dulbecco's Modified Eagle Medium (DMEM) supplemented with 10% fetal bovine serum (FBS) in 5% CO2 at 37° C. Jurkat cells were cultured in RPMI 1640 medium supplemented with 10% FBS in 5% CO2 at 37° C. H2171 cells were cultured in HITES medium supplemented with 10% FBS in 5% CO2 at 37° C. HCT116 were cultured in McCoy's 5A medium supplemented with 10% fetal bovine serum (FBS) in 5% CO2 at 37° C. All the cells lines were treated with 5 μM (or indicated concentration) of PRMT5 inhibitor (EPZ015666) or degraders, or equivalent volume of DMSO for 6 days (or indicated time points). Fresh compounds were constituted in medium and used for every 2 days. The antibodies used in this study are: PRMT5 antibody (Active Motif), (3-actin antibody (Sigma), SDMA antibody (collaboration with Cell Signaling Technologies). Cell cultures were harvested at the end of compound treatments and applied subjected to western blotting assay. Briefly, cells were washed with PBS and lysed with RIPA lysis buffer for 20 minutes on ice. Then lysates were centrifuged and the clear supernatant were collected. SDS loading buffer was added to the lysates and then the mixture was boiled at 100° C. for 5 minutes. Samples were loaded to 10% or 12% SDS-PAGE gel and ran at 120V for 1.5 hours. […]

PRMT5 [2] = molecular target: T1, PRMT5; assay: Western blot of PRMT5 protein levels in H2171 cells; assay type: cell-based; set-up: endogenous in cells; conditions: 5 μM, 6 days
Method: as §1

PRMT5 [3] = molecular target: T1, PRMT5; assay: Western blot of PRMT5 protein levels in multiple cell lines; assay type: cell-based; set-up: endogenous in cells; host or cells: MCF-7; conditions: MCF-7, Hela, Jurkat, HCT116, 293T and H2171 cells, 5 μM, 6 days
Method: as §1

[4] = Standard PK study in mice; assay type: in vivo, male Swiss Albino mice; conditions: single 150 mg/kg IP injection
Method: Standard PK studies were conducted using male Swiss Albino mice. A single 150 mg/kg intraperitoneal (IP) injection of YS43-22 was evaluated. Plasma concentrations of YS43-22 reported at each of the six time points (15 min, 30 min, 1 h, 2 h, 6 h, and 12 h post dosing) are the average values from 3 test animals.

PRMT5 [5] = molecular target: T1, PRMT5; assay: Western blot of PRMT5 protein levels in 293T cells; assay type: cell-based; set-up: endogenous in cells; host or cells: 293T (HEK293T); conditions: 5 μM, 6 days
Method: as §1

MCF-7 cells = assay: Cell proliferation assay (Cell-Titer Glo) in MCF-7 cells; assay type: cell-based; conditions: 5 μM, 10 days
Method: The same starting number of MCF-7 cells were treated with DMSO, 5 μM EPZ015666 or YS43-22 for up to 10 days. Every two days, fresh compounds were constituted in DMEM medium and added to the cell culture. Relative cell numbers were counted every two days (i.e. day 0, 2, 4, 6, 8 and 10) using Cell-Titer Glo kit (Promega). MCF-7 cells were treated with DMSO, EPZ015666 (5 μM), or YS43-22 (5 μM) for 10 days.

PRMT5 [6] = molecular target: T1, PRMT5; assay: Western blot of PRMT5 protein levels in Jurkat cells; assay type: cell-based; set-up: endogenous in cells; conditions: 5 μM, 6 days
Method: as §1

PRMT5 substrates = assay: Arginine symmetric dimethylation (SDMA Western blot) in MCF-7 cells; assay type: cell-based
Method: MCF-7 cells, HEK293T cells and HeLa cells were cultured in Dulbecco's Modified Eagle Medium (DMEM) supplemented with 10% fetal bovine serum (FBS) in 5% CO2 at 37° C. Jurkat cells were cultured in RPMI 1640 medium supplemented with 10% FBS in 5% CO2 at 37° C. H2171 cells were cultured in HITES medium supplemented with 10% FBS in 5% CO2 at 37° C. HCT116 were cultured in McCoy's 5A medium supplemented with 10% fetal bovine serum (FBS) in 5% CO2 at 37° C. All the cells lines were treated with 5 μM (or indicated concentration) of PRMT5 inhibitor (EPZ015666) or degraders, or equivalent volume of DMSO for 6 days (or indicated time points). Fresh compounds were constituted in medium and used for every 2 days. The antibodies used in this study are: PRMT5 antibody (Active Motif), (3-actin antibody (Sigma), SDMA antibody (collaboration with Cell Signaling Technologies). Cell cultures were harvested at the end of compound treatments and applied subjected to western blotting assay. Briefly, cells were washed with PBS and lysed with RIPA lysis buffer for 20 minutes on ice. Then lysates were centrifuged and the clear supernatant were collected. SDS loading buffer was added to the lysates and then the mixture was boiled at 100° C. for 5 minutes. Samples were loaded to 10% or 12% SDS-PAGE gel and ran at 120V for 1.5 hours. Then the proteins were transferred to PVDF membrane and blocked in 5% milk fat at room temperature for 1 hour. Then the membranes were incubated with indicated antibodies at 4° C. overnight. Membranes were washed with PBST buffer three times for 10 minutes each time and incubated with HRP-conjugated (horse radish peroxidase) secondary antibodies at room temperature for 1 hour. Again the membranes were washed with PBST buffer three times for 10 minutes each time. Finally, the indicated proteins on the membranes were visualized with ECL (enhanced chemiluminescence) reagents. MCF-7 cells were treated with EPZ015666 or YS43-22 at indicated compound concentrations (μM) for 6 days.

PRMT5 [7] = molecular target: T1, PRMT5; assay: Western blot of PRMT5 protein levels in HeLa cells; assay type: cell-based; set-up: endogenous in cells; conditions: 5 μM, 6 days
Method: as §1

T1 sequence (O14744 whole entry): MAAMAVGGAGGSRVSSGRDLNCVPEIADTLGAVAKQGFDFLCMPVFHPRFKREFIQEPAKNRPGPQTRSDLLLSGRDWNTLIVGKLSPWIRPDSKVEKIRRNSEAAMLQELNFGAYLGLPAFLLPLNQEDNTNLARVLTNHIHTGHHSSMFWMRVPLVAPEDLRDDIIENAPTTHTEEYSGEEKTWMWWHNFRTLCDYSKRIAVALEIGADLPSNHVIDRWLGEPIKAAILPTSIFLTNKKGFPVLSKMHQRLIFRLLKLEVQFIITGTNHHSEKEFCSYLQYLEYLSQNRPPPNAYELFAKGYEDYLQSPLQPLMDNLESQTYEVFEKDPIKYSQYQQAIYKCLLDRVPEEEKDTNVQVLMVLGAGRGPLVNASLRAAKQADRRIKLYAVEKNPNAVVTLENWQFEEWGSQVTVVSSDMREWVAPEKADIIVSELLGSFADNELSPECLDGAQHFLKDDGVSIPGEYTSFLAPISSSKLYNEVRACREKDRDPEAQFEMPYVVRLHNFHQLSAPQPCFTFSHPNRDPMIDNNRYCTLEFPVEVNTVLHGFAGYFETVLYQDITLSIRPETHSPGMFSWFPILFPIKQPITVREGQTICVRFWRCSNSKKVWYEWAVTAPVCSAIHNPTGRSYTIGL
T1 sequence (Q9BQA1 whole entry partner): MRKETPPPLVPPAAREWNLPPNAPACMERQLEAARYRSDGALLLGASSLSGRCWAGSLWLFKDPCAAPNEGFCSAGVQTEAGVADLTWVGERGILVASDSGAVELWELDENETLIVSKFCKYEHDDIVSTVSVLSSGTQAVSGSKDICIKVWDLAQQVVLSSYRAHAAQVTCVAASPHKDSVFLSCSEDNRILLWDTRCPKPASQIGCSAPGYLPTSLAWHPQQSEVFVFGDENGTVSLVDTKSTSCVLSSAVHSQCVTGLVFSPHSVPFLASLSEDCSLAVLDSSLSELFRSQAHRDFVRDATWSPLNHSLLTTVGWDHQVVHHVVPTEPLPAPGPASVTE

For `Cc1ncsc1-c1ccc([C@H](C)NC(=O)[C@@H]2C[C@@H](O)CN2C(=O)[C@@H](NC(=O)COCCOCCOCCOCCOCC(=O)N2CC(Nc3cc(C(=O)NC[C@H](O)CN4CCc5ccccc5C4)ncn3)C2)C(C)(C)C)cc1` [YS43-22, N-((S)-3-(3,4-dihydroisoquinolin-2(1H)-yl)-2-hydroxypropyl)-6-((1-((S)-19-((2S,4R)-4-hydroxy-2-(((S)-1-(4-(4-methylthiazol-5-yl)phenyl)ethyl)carbamoyl)pyrrolidine-1-carbonyl)-20,20-dimethyl-17-oxo-3,6,9,12,15-pentaoxa-18-azahenicosanoyl)azetidin-3-yl)amino)pyrimidine-4-carboxamide], the PRMT5 protein levels (PRMT5 [1]) was “slightly”, the PRMT5 protein levels (PRMT5 [2]) was “not obviously” and the “PRMT5 protein levels in different cell lines” value (PRMT5 [3]) was “significantly reduced”. For the same compound, the “relative potency in down-regulation of PRMT5 protein levels” value (PRMT5 [3]) was “more potent than YS43-8”, the clinical observations [4] was “no abnormal clinical observations” and the “bioavailability (plasma concentrations)” value ([4]; 15 min to 12 h post dosing, 150 mg/kg) was “Bioavailable”. For the same compound, the PRMT5 protein levels (PRMT5 [5]) was “slightly”, the “cell growth of MCF-7 cells” value (MCF-7 cells) was “significantly reduced; also recorded: significant potency; also recorded: significantly inhibited” and the PRMT5 protein levels (PRMT5 [6]) was “very well”. For the same compound, the “suppressing PRMT5 activity” value (PRMT5 substrates; MCF-7 cells (Examples 90-92)) was “especially effective”, the “inhibition of arginine symmetric dimethylation” value (PRMT5 substrates; MCF-7 cells, indicated concentrations (μM), 6 days) was “significantly inhibited; also recorded: significant inhibition” and the PRMT5 protein levels (PRMT5 [7]) was “moderately”.
